# Experimental data published in US20160340327A1, “PROCESS FOR PREPARING AMORPHOUS CABAZITAXEL” (SHILPA MEDICARE LIMITED, priority 2012, published 2016).
# What was measured:
# [1] = Storage stability of the solid form; format: physicochemical; conditions: storage for longer time; no conditions or data printed
# [2] = description from the drug label; cited from earlier work
stability on handling and storage (morphology and physicochemical characteristics) [1],SMILES,solubility in water [2]
quite stable,CO[C@H]1C(=O)[C@@]2(C)C([C@H](OC(=O)c3ccccc3)[C@]3(O)C[C@H](OC(=O)[C@H](O)[C@H](NC(=O)OC(C)(C)C)c4ccccc4)C(C)=C1C3(C)C)[C@]1(OC(C)=O)CO[C@@H]1C[C@@H]2OC (some centres unmarked),
,"CO[C@H]1C(=O)[C@]2(C)[C@@H](OC)C[C@H]3OC[C@@]3(OC(C)=O)[C@H]2[C@H](OC(=O)c2ccccc2)[C@]2(O)C[C@H](OC(=O)[C@H](O)[C@@H](NC(=O)OC(C)(C)C)c3ccccc3)C(C)=C1C2(C)C [Cabazitaxel, (2α,5β,7β,10β,13α)-4-acetoxy-13-({(2R,3S)-3[(tert-butoxycarbonyl)amino]-2-hydroxy-3-phenylpropanoyl}oxy)-1-hydroxy-7,10-dimethoxy-9-oxo-5,20-epoxytax-11-en-2-yl benzoate]",practically insoluble in water
